Measurements: patent US20210115104A1, “AMYLIN ANALOGUES” (Zealand Pharma A/S, priority 2015, published 2021)
*1 amine or outer side, *2 acyl side, *3 side chain or, on linkers, in order; H or OH if unused. Where a SMILES comes first, the peptide text is derived from it. Bridges are numbered along the chain shown (N, C = ends). [ ]: non-standard residue; d: D form. The star is where a group is joined. C20 diacid = O=C(O)CCCCCCCCCCCCCCCCCCC(=O)*; γGlu = O=C(O)[C@H](CCC(=O)[*:2])N[*:1]; Hyp = O=C(O)[C@@H]1C[C@@H](O)CN1; NMeI = CC[C@H](C)[C@H](NC)C(=O)O; Orn = NCCC[C@H](N)C(=O)O; Sar = CNCC(=O)O

Assays:
[1] = Pharmacokinetic (PK) profiling in rats; type: in vivo, rat; parameters: CI/F (apparent clearance values): unit not given here; settings: Sprague Dawley male rats, single sc 30 nmol/kg
Protocol: Sprague Dawley male rats were given a single subcutaneous (sc) bolus of each peptide to be tested, as specified below. 30 nmol/kg doses of compound were administered. Blood samples were drawn from the tail vein prior to dosing and at 24, 48, 72, 96 and 168 hours after dosing. Blood samples were taken from two rats at each time point, and only 2 blood samples were drawn from each rat, i.e. […] were used for each compound. The rats were euthanized immediately after the last blood sampling by concussion and cervical dislocation.
The dosing vehicle used for each test peptide was a mannitol-containing histidine buffer (pH 7.0). Plasma samples were analyzed after precipitation with ethanol by liquid chromatography mass spectrometry (LC-MS/MS). Mean plasma concentrations were used for calculation of the pharmacokinetic parameters using the non-compartmental approach in Phoenix WinNonlin 6.3.
Plasma terminal elimination half-life (t1/2) was determined as ln(2)/λz, where λz is the magnitude of the slope of the log linear regression of the log concentration versus time profile during the terminal phase. Apparent clearance (CL/F) was determined as dose/AUCinf (sc), where AUCinf is the area under the plasma concentration vs. time curve extrapolated to infinity (AUCinf=AUClast+Clast/λz, where Clast is the last observed plasma concentration).

[2] = Assessment of chemical stability (RP-HPLC normalized purity); type: physicochemical; settings: 7 days, 40° C., Table 1; for Normalized purity after 7 days, 40° C., pH 4: pH 4, 0.2 mg/ml; for Normalized purity after 7 days, 40° C., pH 6: pH 6, 0.2 mg/ml; for Normalized purity after 7 days, 40° C., pH 7.5: pH 7.5, 0.2 mg/ml; for Normalized purity after 7 days, 40° C., pH 9: pH 9, 0.2 mg/ml
Summary of the method: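 Purity after 7 days at 40° C is expressed relative to T=0 (set to 100) for each pH. Samples at 0.2 mg/ml, pH 4, 6, 7.5 or 9, analyzed by RP-HPLC with UV 220 nm on C8 (ammonium formate) or C18 (TFA) gradients.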

[3] = Assessment of physical stability (Thioflavin T fibrillation); type: physicochemical; parameters: key: FND = fibrillation not detected; FD = fibrillation detected; settings: 1 mg/ml, 40° C., ThT; for Fibrillation pH 4.0 (Ac): 50 mM acetate buffer pH 4.0, 96 hours; for Fibrillation pH 7.0 (His): 50 mM histidine buffer pH 7.0, 96 hours; for Fibrillation pH 7.0 (Phos.): 50 mM phosphate buffer pH 7.0, 96 hours
Summary of the method: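 Fibrillation lag-time, in hours, taken where regressions of the initial stable phase and the growth phase intersect. ThT (40 μM) fluorescence monitored at 40 °C for 96 h, 10-min reads each preceded by 300 s mixing. Peptide at 1 mg/ml in 50 mM buffers: phosphate or histidine pH 7.0, acetate pH 4.0.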

[4] = molecular target: T1, human amylin receptor 3 (hAMYR3), hCTR2 co-expressed with hRAMP3 (Homo sapiens, UniProt O60896+P30988); test: hAMYR3 cAMP assay (AlphaScreen) in COS7 cells; type: cell-based; settings: cAMP induction, COS7 cells expressing hAMYR3; Table 1; read-out: hAMYR3 EC50
T1 construct: expressed in transfected cells
T1 sequence (P30988 25-474): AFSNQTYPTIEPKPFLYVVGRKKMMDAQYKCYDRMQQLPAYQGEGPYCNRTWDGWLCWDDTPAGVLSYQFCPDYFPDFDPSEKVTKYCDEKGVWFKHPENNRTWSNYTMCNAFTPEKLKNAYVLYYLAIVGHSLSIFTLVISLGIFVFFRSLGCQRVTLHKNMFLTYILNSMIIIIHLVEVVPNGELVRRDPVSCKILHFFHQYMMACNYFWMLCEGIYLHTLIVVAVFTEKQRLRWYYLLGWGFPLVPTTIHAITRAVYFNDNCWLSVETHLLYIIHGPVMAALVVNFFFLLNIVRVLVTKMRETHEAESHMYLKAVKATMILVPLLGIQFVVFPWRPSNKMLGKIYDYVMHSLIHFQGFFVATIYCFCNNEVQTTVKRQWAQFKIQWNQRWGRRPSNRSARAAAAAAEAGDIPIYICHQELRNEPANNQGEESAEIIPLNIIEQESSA
T1 sequence (O60896 24-148 partner): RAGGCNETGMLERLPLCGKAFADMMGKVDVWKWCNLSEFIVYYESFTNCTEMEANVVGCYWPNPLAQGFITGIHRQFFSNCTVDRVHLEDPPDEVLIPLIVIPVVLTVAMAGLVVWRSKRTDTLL
Summary of the method: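 EC50 values derive from 4PL curve fits of cAMP (AlphaScreen) in lysates of RAMP-naive COS7 cells stably carrying hCTR2 plus hRAMP3. Peptide dilution series were applied for 15 min at 37 °C in pH 7.4 Tyrode buffer containing 100 µM IBMX and 0.1% casein.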

[5] = Assessment of solubility (turbidity absorbance at 325 nm); type: physicochemical; settings: pH 6.0; named as exception to solubility ≥1 mg/ml; read-out: solubility at pH 6.0
Protocol: A stock solution of the test peptide (2 mg/ml; determined from the weighed amount of peptide) in demineralized water adjusted to pH 2.5 with HCl was prepared, and aliquots were diluted 1:1 in 100 mM acetate buffer (pH 4.0 and pH 5.0), 100 mM histidine buffer (pH 6.0 and pH 7.0) and 100 mM phosphate buffer (pH 6.0, pH 7.0 and pH7.5), respectively, and loaded in a standard flat-bottom, non-sterile 96-well UV Microplate. The absorbance of samples (single samples, n=1) at 280 and 325 nm was measured in an absorbance-based plate reader, which was preheated to ambient temperature (typically 25° C.). The turbidity absorbance criterion for a peptide solubility of ≥1 mg/ml was an absorbance at 325 nm of s 0.02 absorbance units (which is 5 to 6 times the standard deviation of 8 buffer samples in a plate).

[6] = molecular target: T2, human calcitonin receptor (hCTR2) (Homo sapiens, UniProt P30988); test: hCTR2 cAMP assay (AlphaScreen) in COS7 cells; type: cell-based; settings: cAMP induction, COS7 cells expressing hCTR2; Table 1; read-out: hCTR2 EC50
T2 construct: expressed in transfected cells
T2 sequence (P30988 25-474): T1 sequence (P30988 25-474)
Summary of the method: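 cAMP induction, read by AlphaScreen after lysis, gives EC50 values via 4PL curve fitting. Peptides were applied at rising concentrations for 15 min at 37 °C, with IBMX and 0.1% casein in HEPES-buffered Tyrode pH 7.4, to COS7 cells (no endogenous RAMPs) stably expressing human CTR2.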

CI/F (apparent clearance values) [1] | Normalized purity after 7 days, 40° C., pH 4 [2] | Normalized purity after 7 days, 40° C., pH 6 [2] | Normalized purity after 7 days, 40° C., pH 7.5 [2] | Normalized purity after 7 days, 40° C., pH 9 [2] | Fibrillation pH 4.0 (Ac) [3] | Fibrillation pH 7.0 (His) [3] | Fibrillation pH 7.0 (Phos.) [3] | EC50 [4] | solubility [5] | EC50 [6] | SMILES
0.0118 | A (A = >90%) | B (B = 70-90%) | A (A = >90%) | B (B = 70-90%) | FND | FD | FD | 0.2 nM | – | – | CC[C@H](C)[C@@H](C(=O)N[C@@H](CC(C)C)C(=O)N[C@@H](CO)C(=O)N[C@@H](CO)C(=O)N[C@H](C(=O)N[C@@H](CCC(=O)O)C(=O)N[C@H](C(=O)NCC(=O)N[C@@H](CO)C(=O)N[C@@H](CCCN)C(=O)N[C@H](C(=O)N1C[C@H](O)C[C@H]1C(N)=O)[C@@H](C)O)C(C)C)[C@@H](C)O)N(C)C(=O)[C@H](C)NC(=O)CN(C)C(=O)[C@H](Cc1ccccc1)NC(=O)[C@H](CO)NC(=O)[C@H](CO)NC(=O)[C@H](CCCNC(=N)N)NC(=O)[C@@H](NC(=O)[C@H](CC(C)C)NC(=O)[C@H](Cc1ccccc1)NC(=O)[C@H](Cc1c[nH]cn1)NC(=O)[C@H](C)NC(=O)[C@H](CC(C)C)NC(=O)[C@H](CCCNC(=N)N)NC(=O)[C@H](CCC(=O)O)NC(=O)[C@@H](NC(=O)[C@H](C)NC(=O)[C@@H]1CSSC[C@H](NC(=O)[C@H](CCCNC(=N)N)NC(=O)CC[C@H](NC(=O)CCCCCCCCCCCCCCCCCCC(=O)O)C(=O)O)C(=O)NCC(=O)N[C@@H]([C@@H](C)O)C(=O)N[C@@H](C)C(=O)N[C@@H]([C@@H](C)O)C(=O)N1)[C@@H](C)O)[C@@H](C)O [Compound 11, [19CD]-isoGlu-R-C( )-GTAT-C( )-ATERLAHFLTRSSF-Gly(Me)-A-Ile(Me)-LSSTEVGS-Orn-T-Hyp-NH2] ({C20 diacid-γGlu}-RCGTATCATERLAHFLTRSSF[Sar]A[NMeI]LSSTEVGS[Orn]T[Hyp]-NH2; disulfide 2-7)
0.0106 | A (A = >90%) | A (A = >90%) | A (A = >90%) | A (A = >90%) | FND | FD | FD | 0.38 nM | – | – | CC[C@H](C)[C@@H](C(=O)N[C@@H](CC(C)C)C(=O)N[C@@H](CO)C(=O)N[C@@H](CO)C(=O)N[C@H](C(=O)N[C@@H](CCC(=O)O)C(=O)N[C@H](C(=O)NCC(=O)N[C@@H](CO)C(=O)NCC(=O)N[C@H](C(=O)N1C[C@H](O)C[C@H]1C(N)=O)[C@@H](C)O)C(C)C)[C@@H](C)O)N(C)C(=O)[C@H](C)NC(=O)CN(C)C(=O)[C@H](Cc1ccccc1)NC(=O)[C@H](CO)NC(=O)[C@H](CO)NC(=O)[C@H](CCCNC(=N)N)NC(=O)[C@@H](NC(=O)[C@H](CC(C)C)NC(=O)[C@H](Cc1ccccc1)NC(=O)[C@H](Cc1c[nH]cn1)NC(=O)[C@H](C)NC(=O)[C@H](CC(C)C)NC(=O)[C@H](CCCNC(=N)N)NC(=O)[C@H](CCC(=O)O)NC(=O)[C@@H](NC(=O)[C@H](C)NC(=O)[C@@H]1CSSC[C@H](NC(=O)[C@H](CCCNC(=N)N)NC(=O)CC[C@H](NC(=O)CCCCCCCCCCCCCCCCCCC(=O)O)C(=O)O)C(=O)NCC(=O)N[C@@H]([C@@H](C)O)C(=O)N[C@@H](C)C(=O)N[C@@H]([C@@H](C)O)C(=O)N1)[C@@H](C)O)[C@@H](C)O [Compound 13, [19CD]-isoGlu-R-C( )-GTAT-C( )-ATERLAHFLTRSSF-Gly(Me)-A-Ile(Me)-LSSTEVGSGT-Hyp-NH2] ({C20 diacid-γGlu}-RCGTATCATERLAHFLTRSSF[Sar]A[NMeI]LSSTEVGSGT[Hyp]-NH2; disulfide 2-7)
– | A (A = >90%) | A (A = >90%) | B (B = 70-90%) | B (B = 70-90%) | FND | FD | FD | – | < 1000 µg/mL | 0.16 nM | CC[C@H](C)[C@@H](C(=O)N[C@@H](CC(C)C)C(=O)N[C@@H](CO)C(=O)N[C@@H](CO)C(=O)N[C@H](C(=O)N[C@@H](CCC(=O)O)C(=O)N[C@H](C(=O)NCC(=O)N[C@@H](CO)C(=O)N[C@@H](Cc1ccccc1)C(=O)N[C@H](C(=O)N1C[C@H](O)C[C@H]1C(N)=O)[C@@H](C)O)C(C)C)[C@@H](C)O)N(C)C(=O)[C@H](C)NC(=O)CN(C)C(=O)[C@H](Cc1ccccc1)NC(=O)[C@H](CO)NC(=O)[C@H](CO)NC(=O)[C@H](CCCNC(=N)N)NC(=O)[C@@H](NC(=O)[C@H](CC(C)C)NC(=O)[C@H](Cc1ccccc1)NC(=O)[C@H](Cc1c[nH]cn1)NC(=O)[C@H](C)NC(=O)[C@H](CC(C)C)NC(=O)[C@H](CCCNC(=N)N)NC(=O)[C@H](CCC(=O)O)NC(=O)[C@@H](NC(=O)[C@H](C)NC(=O)[C@@H]1CSSC[C@H](NC(=O)[C@H](CCCNC(=N)N)NC(=O)CC[C@H](NC(=O)CCCCCCCCCCCCCCCCCCC(=O)O)C(=O)O)C(=O)NCC(=O)N[C@@H]([C@@H](C)O)C(=O)N[C@@H](C)C(=O)N[C@@H]([C@@H](C)O)C(=O)N1)[C@@H](C)O)[C@@H](C)O [Compound 10, [19CD]-isoGlu-R-C( )-GTAT-C( )-ATERLAHFLTRSSF-Gly(Me)-A-Ile(Me)-LSSTEVGSFT-Hyp-NH2] ({C20 diacid-γGlu}-RCGTATCATERLAHFLTRSSF[Sar]A[NMeI]LSSTEVGSFT[Hyp]-NH2; disulfide 2-7)
